Laboratory results from ChEMBL document CHEMBL1201862, “PubChem BioAssay data set” (2004).
Several values for one entry are separate records, joined by “and”; a condition that tells them apart may be missing. Identical values can stand only once.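 Compound exposure: 48 hours, 5 concentrations, 96-well plates. Here, GI50 denotes the concentration required for 50% inhibition of growth.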 Activity calls are given as the source filed them. Cut-off read from the data, not from the text of the source: active = GI50 up to about 1.1 µM and inactive = higher.

Tests used:
Assay in all cases: NCI anticancer screen, dose series, 48 h
ACHN = system: ACHN
IGROV-1 = system: IGROV-1
OVCAR-4 = system: OVCAR-4
HCC 2998 = system: HCC 2998
HCT-15 = system: HCT-15
SK-MEL-28 = system: SK-MEL-28
SF-539 = system: SF-539
Malme-3M = system: Malme-3M
SW-620 = system: SW-620
SNB-19 = system: SNB-19
RXF 393 = system: RXF 393
SK-OV-3 = system: SK-OV-3
HT-29 = system: HT-29
SNB-75 = system: SNB-75
OVCAR-3 = system: OVCAR-3
SN12C = system: SN12C
MDA-MB-435 = system: MDA-MB-435
MCF7 = system: MCF7
NCI/ADR-RES = system: NCI/ADR-RES
MDA-N = system: MDA-N

Structure (SMILES)	GI50 (ACHN)	GI50 (IGROV-1)	GI50 (OVCAR-4)	GI50 (HCC 2998)	GI50 (HCT-15)	GI50 (SK-MEL-28)	GI50 (SF-539)	GI50 (Malme-3M)	GI50 (SW-620)	GI50 (SNB-19)	GI50 (RXF 393)	GI50 (SK-OV-3)	GI50 (HT-29)	GI50 (SNB-75)	GI50 (OVCAR-3)	GI50 (SN12C)	GI50 (MDA-MB-435)	GI50 (MCF7)	GI50 (NCI/ADR-RES)	GI50 (MDA-N)
O=C1c2ccccc2C(=O)c2c(NCCNCCO)ccc(O)c21	2.73 µM (inactive)	2.97 µM (inactive)	2.85 µM (inactive)	4.66 µM (inactive)	3.46 µM	2.88 µM (inactive)	2.9 µM (inactive)	3.18 µM (inactive)	2.26 µM (inactive)	2.89 µM (inactive)	2.15 µM (inactive)	2.55 µM (inactive)	2.58 µM (inactive)	3.63 µM (inactive)	6.46 µM (inactive)	1.45 µM (inactive)	–	–	–	–
C=CCC(OCCOCC)c1cc(OCCOCC)ccc1OC (stereo unspecified)	> 100 µM (inactive)	> 100 µM (inactive)	> 100 µM (inactive)	> 100 µM (inactive)	> 100 µM	> 100 µM (inactive)	> 100 µM (inactive)	> 100 µM (inactive)	> 100 µM (inactive)	> 100 µM (inactive)	> 100 µM (inactive)	> 100 µM (inactive)	> 100 µM (inactive)	> 100 µM (inactive)	> 100 µM (inactive)	> 100 µM (inactive)	–	–	–	–
O=C1N=C(Nc2ccccc2Cl)SC1C(=O)Nc1ccc([N+](=O)[O-])cc1[N+](=O)[O-] (stereo unspecified)	> 100 µM (inactive)	> 100 µM (inactive)	> 100 µM (inactive)	> 100 µM (inactive)	> 100 µM	> 100 µM (inactive)	> 100 µM (inactive)	> 100 µM (inactive)	> 100 µM (inactive)	> 100 µM (inactive)	> 100 µM (inactive)	> 100 µM (inactive)	> 100 µM (inactive)	66.1 µM (inactive)	> 100 µM (inactive)	> 100 µM (inactive)	–	–	–	–
CCOc1ccc(NCC2CC/C(=C\c3ccccc3OC)C2=O)cc1 (stereo unspecified)	14.6 µM (inactive)	10.6 µM (inactive)	6.38 µM (inactive)	12.8 µM (inactive)	3.09 µM	11 µM (inactive)	10.3 µM (inactive)	14.4 µM (inactive)	4.23 µM (inactive)	15.9 µM (inactive)	8.91 µM (inactive)	17 µM (inactive)	3.3 µM (inactive)	14.6 µM (inactive)	6.37 µM (inactive)	7.1 µM (inactive)	–	–	–	–
O=C(/C=C/c1ccccc1)c1ccc(NCc2nc3ccccc3[nH]2)cc1	7.66 µM (inactive)	6.56 µM (inactive)	9.23 µM (inactive)	2.12 µM (inactive)	4.11 µM	18 µM (inactive)	2.17 µM (inactive)	13.3 µM (inactive)	2.75 µM (inactive)	6.1 µM (inactive)	5.22 µM (inactive)	6.37 µM (inactive)	2.58 µM (inactive)	4.61 µM (inactive)	2.8 µM (inactive)	5.33 µM (inactive)	–	–	–	–
CC(C)CC[C@H](O)[C@@H](C)[C@H]1[C@@H](OC2OC(C)C(O)C(O)C2O)C[C@H]2[C@@H]3CC=C4C[C@@H](O)CC[C@]4(C)[C@H]3[C@@H](O)C[C@]12C (stereo partly specified)	> 27.7 µM (inactive)	4.42 µM (inactive)	–	> 100 µM (inactive)	> 56.1 µM	0.506 µM (active)	0.0337 µM (active)	1.85 µM (inactive)	0.533 µM (active)	> 100 µM (inactive)	0.124 µM (active)	> 100 µM (inactive)	1.75 µM (inactive)	5.4 µM (inactive)	> 100 µM (inactive)	> 100 µM (inactive)	1.55 µM (inactive)	0.656 µM (active)	> 92.9 µM (inactive)	–
Oc1nc(S)nc2nc3c4cccnc4c4ccccc4c3nc12	> 100 µM (inactive)	> 100 µM (inactive)	> 100 µM (inactive)	> 100 µM (inactive)	> 100 µM	77.1 µM (inactive)	> 100 µM (inactive)	> 100 µM (inactive)	> 100 µM (inactive)	> 100 µM (inactive)	49.8 µM (inactive)	> 100 µM (inactive)	> 100 µM (inactive)	48.4 µM (inactive)	> 100 µM (inactive)	> 100 µM (inactive)	> 100 µM (inactive)	88.3 µM (inactive)	–	> 100 µM (inactive)
O=C1C=CC2(C=C1)C[C@H](NC(=O)OCc1ccccc1)C(=O)O2	15.8 µM (inactive)	19.8 µM (inactive)	18.2 µM (inactive)	19.7 µM (inactive)	11 µM	13 µM (inactive)	22.4 µM (inactive)	13 µM (inactive)	4.31 µM (inactive)	99.5 µM (inactive)	10.2 µM (inactive)	> 67.1 µM (inactive)	13.8 µM (inactive)	25.1 µM (inactive)	15.5 µM (inactive)	18.2 µM (inactive)	–	11.2 µM (inactive)	–	14.8 µM (inactive)
N#Cc1c(-c2ccco2)cc(-c2ccc(NCc3nc4ccccc4[nH]3)cc2)nc1N	26.5 µM (inactive)	23 µM (inactive)	22.8 µM (inactive)	21.8 µM (inactive)	23.6 µM	27.5 µM (inactive)	19.5 µM (inactive)	24.5 µM (inactive)	35.3 µM (inactive)	20.5 µM (inactive)	16 µM (inactive)	50.5 µM (inactive)	32.6 µM (inactive)	26.4 µM (inactive)	20.1 µM (inactive)	22.5 µM (inactive)	–	–	–	–
O=C(NCCn1ccnn1)Nc1ccccc1	> 100 µM (inactive)	> 100 µM (inactive)	–	> 100 µM (inactive)	> 100 µM	> 100 µM (inactive)	–	> 100 µM (inactive)	> 100 µM (inactive)	> 100 µM (inactive)	–	–	> 100 µM (inactive)	> 100 µM (inactive)	–	> 100 µM (inactive)	> 100 µM (inactive)	> 100 µM (inactive)	> 100 µM (inactive)	–
Cc1cc(C)c(N)c(CO)c1	> 100 µM (inactive)	–	78.9 µM (inactive) and 57.4 µM (inactive)	74.5 µM (inactive) and 71.1 µM (inactive)	> 100 µM	> 100 µM (inactive)	> 100 µM (inactive)	> 100 µM (inactive)	> 88.3 µM (inactive) and 95.3 µM (inactive)	> 100 µM (inactive)	–	> 100 µM (inactive)	–	> 100 µM (inactive)	32.7 µM (inactive) and 24.4 µM (inactive)	> 100 µM (inactive)	> 100 µM (inactive)	–	> 100 µM (inactive)	> 100 µM (inactive)
CC1=NC(=Cc2ccc(O)cc2)C(=O)N1n1c(-c2ccccc2)nc2ccccc2c1=O	> 100 µM (inactive)	> 100 µM (inactive)	–	> 100 µM (inactive)	> 100 µM	> 100 µM (inactive)	> 100 µM (inactive)	> 100 µM (inactive)	> 100 µM (inactive)	> 100 µM (inactive)	–	> 100 µM (inactive)	> 100 µM (inactive)	> 100 µM (inactive)	–	> 100 µM (inactive)	> 100 µM (inactive)	> 100 µM (inactive)	–	> 100 µM (inactive)
Cc1ccc(C(=O)/C=C/N2CCN(c3cccc(C(F)(F)F)c3)CC2)cc1	23.9 µM (inactive)	16.3 µM (inactive)	43.7 µM (inactive)	12.4 µM (inactive)	15.6 µM	19.7 µM (inactive)	15.9 µM (inactive)	18.6 µM (inactive)	20.6 µM (inactive)	30.1 µM (inactive)	15.7 µM (inactive)	35.1 µM (inactive)	17.9 µM (inactive)	16.9 µM (inactive)	14.4 µM (inactive)	18.5 µM (inactive)	16.9 µM (inactive)	18 µM (inactive)	17.9 µM (inactive)	–
[O-][S+]1Cc2ccccc2CS1 (stereo unspecified)	18.8 µM (inactive)	68.2 µM (inactive)	16 µM (inactive)	29.7 µM (inactive)	34.9 µM	14.9 µM (inactive)	11.4 µM (inactive)	13.6 µM (inactive)	13.9 µM (inactive)	> 100 µM (inactive)	15.9 µM (inactive)	52.8 µM (inactive)	15.8 µM (inactive)	20.3 µM (inactive)	15.1 µM (inactive)	14 µM (inactive)	–	–	–	–
CC(C)[Si](OC1=CCC[C@H]2NC(=O)[C@@H](Cc3ccc([N+](=O)[O-])cc3)[C@@]12C)(C(C)C)C(C)C	1.49 µM (inactive)	11.3 µM (inactive)	4.47 µM (inactive)	1.95 µM (inactive)	4.25 µM	–	2.42 µM (inactive)	16.6 µM (inactive)	–	12.5 µM (inactive)	2.15 µM (inactive)	10.1 µM (inactive)	2.12 µM (inactive)	10.4 µM (inactive)	4.34 µM (inactive)	2.02 µM (inactive)	–	3.73 µM (inactive)	11.7 µM (inactive)	4.98 µM (inactive)
Cc1ccc(C)c(NC(=O)CC/C(=N\NC(=O)C(=O)NN)C(C)C(=O)c2ccc(O)cc2)c1 (stereo unspecified)	> 100 µM (inactive)	> 100 µM (inactive)	> 100 µM (inactive)	> 100 µM (inactive)	> 100 µM	> 100 µM (inactive)	> 100 µM (inactive)	> 100 µM (inactive)	> 100 µM (inactive)	> 100 µM (inactive)	> 100 µM (inactive)	> 100 µM (inactive)	> 100 µM (inactive)	> 100 µM (inactive)	> 100 µM (inactive)	> 100 µM (inactive)	–	–	–	–
CC(=O)Nc1ccc(S(=O)(=O)Nc2cnc3ccccc3n2)cc1	> 100 µM (inactive)	> 100 µM (inactive)	> 100 µM (inactive)	> 100 µM (inactive)	> 100 µM	> 100 µM (inactive)	> 100 µM (inactive)	> 100 µM (inactive)	> 100 µM (inactive)	> 100 µM (inactive)	> 100 µM (inactive)	> 100 µM (inactive)	> 100 µM (inactive)	63.5 µM (inactive)	> 100 µM (inactive)	> 100 µM (inactive)	–	–	–	–
